We go through one compound from PMC8466755, “GPCR Pharmacological Profiling of Aaptamine from the Philippine Sponge Stylissa sp. Extends Its Therapeutic Potential for Noncommunicable Diseases” (Molecules, 2021).

What is called inhibition is the relative decrease from the control value, in per cent. Usually IC50 stands for the point on the concentration scale where inhibition reaches its midpoint. For orientation: EC50 means the concentration giving half of the maximal effect.

One assay concerns the target T1, CXCR3 (Homo sapiens, UniProt P49682).
T1 sequence (P49682 1-368): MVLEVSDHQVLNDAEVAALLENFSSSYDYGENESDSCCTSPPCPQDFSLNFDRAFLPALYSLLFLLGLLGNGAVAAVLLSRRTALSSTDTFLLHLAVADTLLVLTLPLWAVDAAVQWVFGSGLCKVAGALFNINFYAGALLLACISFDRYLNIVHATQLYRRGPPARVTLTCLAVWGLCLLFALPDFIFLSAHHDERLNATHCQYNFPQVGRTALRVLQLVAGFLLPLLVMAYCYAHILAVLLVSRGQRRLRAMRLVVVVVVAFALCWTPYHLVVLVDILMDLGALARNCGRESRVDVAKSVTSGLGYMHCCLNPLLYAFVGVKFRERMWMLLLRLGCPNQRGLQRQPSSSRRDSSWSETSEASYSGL
The assay is described as follows: PathHunter β-arrestin primary screen, antagonist mode (potentiator hit). In kind it is cell-based. To be noted: control agonist at EC80, negative inhibition = potentiation, read-out: Primary Screen Maximal Response, % Inhibition or Activation. The method, then: (§1) Aaptamine (20 µM) was profiled in gpcrMAX panel biosensor assays (in agonist and antagonist modes) against a panel of 168 GPCRs. The assay was performed by DiscoverX Corporation (Fremont, CA) using PathHunter β -arrestin enzyme fragment complementation (EFC) technology, in a similar way to that described elsewhere. The PathHunter cell lines were taken from freezer stocks according to standard procedures. A total of 20 µL of cells were seeded into white 384-well plates and incubated at 37 °C for the appropriate time prior to testing.
(§2) For antagonist determination, PathHunter cells were preincubated with aaptamine followed by the addition of an agonist. In this assay format, the standard agonist was added at an EC80 concentration. To the plate that contained the cells, 5 µL of the 5X sample was added and incubated for 30 min at 37 °C or room temperature. After the incubation period, 5 µL of the 6X EC80 agonist in an assay buffer was added to the cells and incubated for additional 90 or 180 min at 37 °C or room temperature.

Another assay has as its target T2, CCR3 (Homo sapiens, UniProt P51677).
T2 sequence (P51677 1-355): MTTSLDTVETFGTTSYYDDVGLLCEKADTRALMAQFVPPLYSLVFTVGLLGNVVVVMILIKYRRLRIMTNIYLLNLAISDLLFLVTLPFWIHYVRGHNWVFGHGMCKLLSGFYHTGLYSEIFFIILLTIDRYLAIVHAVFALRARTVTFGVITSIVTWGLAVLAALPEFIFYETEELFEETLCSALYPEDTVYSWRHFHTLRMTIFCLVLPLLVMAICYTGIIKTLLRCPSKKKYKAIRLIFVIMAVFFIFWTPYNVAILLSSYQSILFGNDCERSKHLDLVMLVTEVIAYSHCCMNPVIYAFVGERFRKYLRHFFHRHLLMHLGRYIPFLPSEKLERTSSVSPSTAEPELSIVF
The description is as above. Format: cell-based. The note with it: control agonist at EC80, negative inhibition = potentiation, read-out: Primary Screen Maximal Response, % Inhibition or Activation. On the procedure:
as §1, §2

Another assay deals with OPRK1 (Homo sapiens, UniProt P41145). Described as above. In kind it is cell-based. The note with it: control agonist at EC80, negative inhibition = potentiation, read-out: % Activation or inhibition, primary screen. The method, then: as §1, §2
OPRK1, sequence (P41145 whole entry): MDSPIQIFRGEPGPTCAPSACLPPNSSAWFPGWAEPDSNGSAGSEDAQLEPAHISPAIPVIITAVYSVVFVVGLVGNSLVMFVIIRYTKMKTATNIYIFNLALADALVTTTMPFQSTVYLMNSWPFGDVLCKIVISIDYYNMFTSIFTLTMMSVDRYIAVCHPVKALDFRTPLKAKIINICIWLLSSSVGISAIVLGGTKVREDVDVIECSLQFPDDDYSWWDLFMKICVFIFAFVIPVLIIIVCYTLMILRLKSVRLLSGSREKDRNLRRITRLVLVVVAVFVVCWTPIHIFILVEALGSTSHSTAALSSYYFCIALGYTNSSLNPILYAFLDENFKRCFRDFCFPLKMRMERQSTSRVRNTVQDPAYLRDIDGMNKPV
The target of the next assay is SSTR1 (Homo sapiens, UniProt P30872). Described as above. To be noted: control agonist at EC80, negative inhibition = potentiation, read-out: % Activation or inhibition, primary screen. In kind it is cell-based. The method, then:
as §1, §2

In assay [1] the target is T3, HTR1E (Homo sapiens, UniProt P28566). The assay is described as above. Format: cell-based. The note with it: control agonist at EC80, negative inhibition = potentiation, read-out: % Activation or inhibition, primary screen. On the procedure: as §1, §2
T3 sequence (P28566 whole entry): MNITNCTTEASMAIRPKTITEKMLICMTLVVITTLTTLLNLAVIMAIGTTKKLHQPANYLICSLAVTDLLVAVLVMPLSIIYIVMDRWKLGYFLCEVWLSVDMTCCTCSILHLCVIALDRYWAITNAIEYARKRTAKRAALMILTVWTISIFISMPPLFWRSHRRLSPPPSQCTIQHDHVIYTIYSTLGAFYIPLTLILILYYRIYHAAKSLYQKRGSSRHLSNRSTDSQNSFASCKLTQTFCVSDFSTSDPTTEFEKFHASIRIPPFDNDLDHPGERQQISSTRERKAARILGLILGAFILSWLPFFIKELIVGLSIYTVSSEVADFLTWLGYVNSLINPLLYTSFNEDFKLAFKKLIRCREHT
Assay [2] relates to pdr1 Δ pdr3 Δ S. cerevisiae. The assay is described as follows: Yeast growth inhibition assay, double deletion strain. The note with it: up to 50 µM, 24 h, PDR-attenuated strain.
Method: The yeast S. cerevisiae (BY4741) cell culture was prepared by inoculating the microorganism in a 250 mL Erlenmeyer flask containing 50 mL YPD + HEPES medium, followed by incubation at 30 °C for 24–48 h. The assay was performed in a 96-well format. Each well except for the blank contained 100 μL of cell suspension with a final cell density of 5 × 10^4 cells/mL. […] The absorbance was read after a 24 h incubation. […] Nystatin was used as the positive control and DMSO served as the negative control. Each treatment was done in triplicate.
Assay [3] relates to HCT116 colon cancer cells. Briefly: MTT cell viability assay, HCT116. In kind it is cell-based, human. On the procedure:
Aaptamine was tested against HCT116 colon cancer cells and cell viability was assessed after 48 h using an MTT (3-(4,5-dimethyl dimethylthiazol-2-yl)-2,5-diphenyltetrazolium bromide) assay. […] The results agreed with the findings of Kobayashi et al. that aaptamine at concentrations of 20–50 µM increased the expression of the cyclin-dependent kinase inhibitor p21, a protein known to act as a negative regulator of cell cycle progression, thus preventing cell proliferation. […] To alternatively explain the activity of aaptamine, we tested the compound for its ability to inhibit the chymotrypsin-like activity of a purified 20S proteasome from human erythrocytes. Proteasome inhibitors are validated anticancer agents. Aaptamine was able to inhibit the enzyme activity by 41% at 50 µM (Figure 2b). […] In our study, aaptamine had similar IC50 values for cancer cell growth inhibition and proteasome inhibition in vitro (~50 µM).
Human colon carcinoma cells (HCT116) were cultured in Dulbecco’s modified Eagle’s medium (DMEM, Invitrogen, MA, USA), supplemented with 10% fetal bovine serum (FBS, Sigma-Aldrich, MO, USA) and 1% antibiotic-antimycotic (Invitrogen, MA, USA) humidified at 37 °C with 5% CO2. […] Detection was performed using a SpectraMax M5 spectrometer (Molecular Devices, CA, USA) at 570 nm and cell viability was calculated and expressed relative to the vehicle control.

For assay [4], the target named is T3, HTR1E. Briefly: PathHunter β-arrestin assay, positive allosteric modulation (PAM) mode. Format: cell-based. The note with it: dose-response, control agonist at EC20.
Method: (§3) The assays were performed at 10-point concentrations using three-fold serial dilutions in duplicate. For all the assay formats, the final assay vehicle concentration was 1%.
For PAM assays, the cells were preincubated with the sample followed by agonist induction at the EC20 concentration. To the cells, 5 µL of 5X sample was added and incubated for 30 min at 37 °C or room temperature. Following the incubation period, 5 µL of the 6X EC20 agonist prepared in an assay buffer was added to the cells and incubated for 90 or 180 min at 37 °C or room temperature.
For assay [5], the target named is opioid receptor delta 1 (OPRD1) (Homo sapiens, UniProt P41143). Briefly: PathHunter β-arrestin assay, agonist mode. In kind it is cell-based. The note with it: 20 µM primary screen. On the procedure:
as §1
For agonist determination, aaptamine was incubated with PathHunter cell lines to induce a response. To increase the concentration, intermediate dilution from 20 µM of aaptamine was performed to generate a 5X sample in an assay buffer. Then, 5 µL of 5X sample was added to the plate with PathHunter cells and incubated for 90 or 180 min at 37 °C or room temperature. The percentage activity of aaptamine was calculated following this formula: % activity = 100% × (mean RLU of test sample − mean RLU of vehicle control)/(mean MAX control ligand − mean RLU of vehicle control).

A further assay concerns the target DRD2L (Homo sapiens, UniProt P14416). Briefly: PathHunter β-arrestin assay, antagonist mode. Format: cell-based.
For the next assay, the target named is CXCR7 (Homo sapiens, UniProt P25106). The assay is described as follows: PathHunter β-arrestin assay, agonist mode. Format: cell-based.
CXCR7, sequence (P25106 whole entry): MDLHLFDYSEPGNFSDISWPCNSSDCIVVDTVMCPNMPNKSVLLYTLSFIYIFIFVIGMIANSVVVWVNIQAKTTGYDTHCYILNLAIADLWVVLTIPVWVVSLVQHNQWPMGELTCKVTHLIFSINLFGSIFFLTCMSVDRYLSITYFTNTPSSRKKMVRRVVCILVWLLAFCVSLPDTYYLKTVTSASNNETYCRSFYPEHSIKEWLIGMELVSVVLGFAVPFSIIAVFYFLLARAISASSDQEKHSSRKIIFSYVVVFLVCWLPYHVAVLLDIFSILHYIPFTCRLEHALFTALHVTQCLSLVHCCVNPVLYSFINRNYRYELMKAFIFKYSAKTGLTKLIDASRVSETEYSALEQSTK
In another assay the target is ADRA2A (Homo sapiens, UniProt P08913). Briefly: PathHunter β-arrestin assay, antagonist mode. In kind it is cell-based.
ADRA2A, sequence (P08913 whole entry): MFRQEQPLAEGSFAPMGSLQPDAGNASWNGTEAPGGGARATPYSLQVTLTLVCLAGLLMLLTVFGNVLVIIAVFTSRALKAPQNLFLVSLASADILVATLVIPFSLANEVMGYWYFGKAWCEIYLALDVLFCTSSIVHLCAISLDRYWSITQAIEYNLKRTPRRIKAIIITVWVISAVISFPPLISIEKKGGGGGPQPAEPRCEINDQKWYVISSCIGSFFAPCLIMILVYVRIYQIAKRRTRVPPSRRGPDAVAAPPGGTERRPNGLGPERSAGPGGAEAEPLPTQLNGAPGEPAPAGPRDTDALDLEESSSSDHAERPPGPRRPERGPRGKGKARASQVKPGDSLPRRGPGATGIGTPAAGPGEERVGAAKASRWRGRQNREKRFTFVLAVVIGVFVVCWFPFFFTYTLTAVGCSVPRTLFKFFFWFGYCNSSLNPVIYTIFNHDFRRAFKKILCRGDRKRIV
Where [6] appears, read: dose-response analysis, read-out: Dose-Response Maximal Response, % Inhibition.

Entries after “also recorded” stand apart in the source; their conditions may differ.

DRD2L, sequence (P14416 whole entry): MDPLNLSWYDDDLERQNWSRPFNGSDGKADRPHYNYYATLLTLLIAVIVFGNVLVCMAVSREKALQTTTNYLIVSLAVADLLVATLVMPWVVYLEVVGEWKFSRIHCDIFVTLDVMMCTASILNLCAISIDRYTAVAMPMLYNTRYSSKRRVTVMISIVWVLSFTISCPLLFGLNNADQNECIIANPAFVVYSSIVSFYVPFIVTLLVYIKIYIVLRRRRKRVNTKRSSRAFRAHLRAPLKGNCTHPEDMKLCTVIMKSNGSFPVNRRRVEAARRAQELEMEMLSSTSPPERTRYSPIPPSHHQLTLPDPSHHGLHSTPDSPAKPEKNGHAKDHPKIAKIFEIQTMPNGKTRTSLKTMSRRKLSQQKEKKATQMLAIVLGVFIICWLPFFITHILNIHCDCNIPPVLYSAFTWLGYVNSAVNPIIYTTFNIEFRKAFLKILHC
SSTR1, sequence (P30872 whole entry): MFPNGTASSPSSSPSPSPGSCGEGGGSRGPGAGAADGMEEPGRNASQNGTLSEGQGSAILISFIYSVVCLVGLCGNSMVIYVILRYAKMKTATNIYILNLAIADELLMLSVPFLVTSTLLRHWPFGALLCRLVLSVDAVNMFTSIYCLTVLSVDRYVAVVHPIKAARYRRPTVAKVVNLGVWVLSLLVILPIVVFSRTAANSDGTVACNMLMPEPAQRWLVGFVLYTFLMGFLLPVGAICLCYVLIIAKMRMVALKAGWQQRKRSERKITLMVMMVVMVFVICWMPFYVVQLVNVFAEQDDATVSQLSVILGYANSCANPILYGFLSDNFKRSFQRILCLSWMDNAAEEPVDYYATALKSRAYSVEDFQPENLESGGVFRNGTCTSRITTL
opioid receptor delta 1 (OPRD1), sequence (P41143 whole entry): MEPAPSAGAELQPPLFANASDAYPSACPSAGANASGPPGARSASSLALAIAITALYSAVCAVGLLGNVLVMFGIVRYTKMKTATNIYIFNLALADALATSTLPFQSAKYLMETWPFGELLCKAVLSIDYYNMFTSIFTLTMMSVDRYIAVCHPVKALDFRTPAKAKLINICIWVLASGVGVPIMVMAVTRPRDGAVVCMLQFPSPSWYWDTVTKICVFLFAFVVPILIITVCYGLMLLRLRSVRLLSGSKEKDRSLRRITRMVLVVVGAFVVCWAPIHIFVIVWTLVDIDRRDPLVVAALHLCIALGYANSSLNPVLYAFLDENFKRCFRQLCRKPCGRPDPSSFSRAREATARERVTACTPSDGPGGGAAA
Method for ADRA2A: (§4) The assay was performed by DiscoverX Corporation (Fremont, CA) using PathHunter β -arrestin enzyme fragment complementation (EFC) technology, in a similar way to that described elsewhere [35, 36]. The PathHunter cell lines were taken from freezer stocks according to standard procedures. A total of 20 µL of cells were seeded into white 384-well plates and incubated at 37 °C for the appropriate time prior to testing.
as §3
Method for CXCR7: as §3
Method for DRD2L: as §4, §3

For `COc1cc2ccnc3c2c(c1OC)NC=C3` [aaptamine], the results for the Emax at 20 µM on CXCR3 and on CCR3 were 69% and 49%, respectively. Also, the inhibition at 20 µM on OPRK1 is -46%; on SSTR1 it was -46%; on HTR1E [1], -47%. In addition, the growth inhibitory activity entry in [2] was “inactive”. Moreover, the “reduction of viability of HCT116” value in assay [3] (50 µM (highest concentration tested), 48 h, MTT) was found to be 50%. The IC50 in [3] (Homo sapiens, HCT-116, HCT116, 48 h, read-out: IC50 cancer cell growth inhibition) was about 50 µM; at DRD2L (dose-response, antagonist mode) it was 38.7 µM; at ADRA2A (dose-response, antagonist mode), 56.1 µM. Moreover, the “validation of potentiator hit under PAM conditions” value on HTR1E [4] was “false positives; also recorded: did not validate”. Moreover, the “agonistic activity in the β-arrestin assay” value in assay [5] is “did not demonstrate significant agonistic activity”. Besides, the Emax was 73.7% at DRD2L (setting [6]); 123% at CXCR7 (dose-response analysis, read-out: Dose-Response Maximal Response, % Activation); 63.4% on ADRA2A (setting [6]). The “Dose-Response Maximal Response, % Activation” value on CXCR7 (dose-response analysis) stood at 122.57%. In addition, the midpoint of the response at CXCR7 (dose-response, agonist mode), the EC50, lay at 6.2 µM.
